The record followed here is ChEMBL document CHEMBL1135703, “Synthesis and biological activity of a novel class of small molecular weight peptidomimetic competitive inhibitors of protein tyrosine phosphatase 1B” (2002).

The target in experiment [1] is T1, Tyrosine-protein phosphatase non-receptor type 1 (Rattus norvegicus) (UniProt P20417).
T1 sequence (whole entry): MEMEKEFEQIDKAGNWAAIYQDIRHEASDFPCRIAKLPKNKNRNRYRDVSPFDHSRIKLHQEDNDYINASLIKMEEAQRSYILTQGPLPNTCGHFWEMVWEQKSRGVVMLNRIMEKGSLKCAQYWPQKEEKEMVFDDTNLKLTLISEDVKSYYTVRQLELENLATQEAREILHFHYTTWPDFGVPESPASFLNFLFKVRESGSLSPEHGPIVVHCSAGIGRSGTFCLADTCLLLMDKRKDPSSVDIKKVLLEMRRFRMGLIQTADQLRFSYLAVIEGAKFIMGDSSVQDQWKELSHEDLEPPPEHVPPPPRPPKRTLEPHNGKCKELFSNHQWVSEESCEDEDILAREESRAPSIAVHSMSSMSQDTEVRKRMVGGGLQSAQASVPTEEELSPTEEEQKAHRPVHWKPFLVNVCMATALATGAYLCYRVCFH
Kind of experiment: Percent inhibition of Protein-tyrosine phosphatase 1 (PTP) assayed at 100 uM.

Experiment [2] has as its target Receptor-type tyrosine-protein phosphatase F (Homo sapiens) (UniProt P10586). Briefly: Percent inhibition of Protein-tyrosine phosphatase Lar assayed at 100 uM.
Experiment [3] deals with T2, Tyrosine-protein phosphatase non-receptor type 11 (Mus musculus) (UniProt P35235).
T2 sequence (whole entry): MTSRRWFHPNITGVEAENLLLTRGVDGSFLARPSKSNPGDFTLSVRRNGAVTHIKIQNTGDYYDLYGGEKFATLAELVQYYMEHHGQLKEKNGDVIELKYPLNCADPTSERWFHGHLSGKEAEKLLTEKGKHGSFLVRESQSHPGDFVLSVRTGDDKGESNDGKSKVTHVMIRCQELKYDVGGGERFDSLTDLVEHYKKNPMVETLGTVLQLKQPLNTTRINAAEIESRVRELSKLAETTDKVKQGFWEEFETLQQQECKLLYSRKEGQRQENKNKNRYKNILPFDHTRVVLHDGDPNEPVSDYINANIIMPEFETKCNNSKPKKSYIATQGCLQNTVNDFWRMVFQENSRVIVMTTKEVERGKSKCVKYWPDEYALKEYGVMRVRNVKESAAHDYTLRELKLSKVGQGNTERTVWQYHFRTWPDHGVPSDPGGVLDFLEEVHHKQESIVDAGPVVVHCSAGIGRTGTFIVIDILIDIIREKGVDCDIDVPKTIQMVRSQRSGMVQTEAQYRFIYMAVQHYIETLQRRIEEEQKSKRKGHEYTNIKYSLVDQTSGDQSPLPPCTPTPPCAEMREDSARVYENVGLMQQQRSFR
Kind of experiment: Percent inhibition of Tyrosine phosphatase SHP2 SH2 domain containing PTP involved in insulin uM. Details: concentration or dose not given beside the values. The following applies: concentration not given here.

The structures appear in SMILES notation.

Receptor-type tyrosine-protein phosphatase F (Homo sapiens), sequence (P10586 whole entry): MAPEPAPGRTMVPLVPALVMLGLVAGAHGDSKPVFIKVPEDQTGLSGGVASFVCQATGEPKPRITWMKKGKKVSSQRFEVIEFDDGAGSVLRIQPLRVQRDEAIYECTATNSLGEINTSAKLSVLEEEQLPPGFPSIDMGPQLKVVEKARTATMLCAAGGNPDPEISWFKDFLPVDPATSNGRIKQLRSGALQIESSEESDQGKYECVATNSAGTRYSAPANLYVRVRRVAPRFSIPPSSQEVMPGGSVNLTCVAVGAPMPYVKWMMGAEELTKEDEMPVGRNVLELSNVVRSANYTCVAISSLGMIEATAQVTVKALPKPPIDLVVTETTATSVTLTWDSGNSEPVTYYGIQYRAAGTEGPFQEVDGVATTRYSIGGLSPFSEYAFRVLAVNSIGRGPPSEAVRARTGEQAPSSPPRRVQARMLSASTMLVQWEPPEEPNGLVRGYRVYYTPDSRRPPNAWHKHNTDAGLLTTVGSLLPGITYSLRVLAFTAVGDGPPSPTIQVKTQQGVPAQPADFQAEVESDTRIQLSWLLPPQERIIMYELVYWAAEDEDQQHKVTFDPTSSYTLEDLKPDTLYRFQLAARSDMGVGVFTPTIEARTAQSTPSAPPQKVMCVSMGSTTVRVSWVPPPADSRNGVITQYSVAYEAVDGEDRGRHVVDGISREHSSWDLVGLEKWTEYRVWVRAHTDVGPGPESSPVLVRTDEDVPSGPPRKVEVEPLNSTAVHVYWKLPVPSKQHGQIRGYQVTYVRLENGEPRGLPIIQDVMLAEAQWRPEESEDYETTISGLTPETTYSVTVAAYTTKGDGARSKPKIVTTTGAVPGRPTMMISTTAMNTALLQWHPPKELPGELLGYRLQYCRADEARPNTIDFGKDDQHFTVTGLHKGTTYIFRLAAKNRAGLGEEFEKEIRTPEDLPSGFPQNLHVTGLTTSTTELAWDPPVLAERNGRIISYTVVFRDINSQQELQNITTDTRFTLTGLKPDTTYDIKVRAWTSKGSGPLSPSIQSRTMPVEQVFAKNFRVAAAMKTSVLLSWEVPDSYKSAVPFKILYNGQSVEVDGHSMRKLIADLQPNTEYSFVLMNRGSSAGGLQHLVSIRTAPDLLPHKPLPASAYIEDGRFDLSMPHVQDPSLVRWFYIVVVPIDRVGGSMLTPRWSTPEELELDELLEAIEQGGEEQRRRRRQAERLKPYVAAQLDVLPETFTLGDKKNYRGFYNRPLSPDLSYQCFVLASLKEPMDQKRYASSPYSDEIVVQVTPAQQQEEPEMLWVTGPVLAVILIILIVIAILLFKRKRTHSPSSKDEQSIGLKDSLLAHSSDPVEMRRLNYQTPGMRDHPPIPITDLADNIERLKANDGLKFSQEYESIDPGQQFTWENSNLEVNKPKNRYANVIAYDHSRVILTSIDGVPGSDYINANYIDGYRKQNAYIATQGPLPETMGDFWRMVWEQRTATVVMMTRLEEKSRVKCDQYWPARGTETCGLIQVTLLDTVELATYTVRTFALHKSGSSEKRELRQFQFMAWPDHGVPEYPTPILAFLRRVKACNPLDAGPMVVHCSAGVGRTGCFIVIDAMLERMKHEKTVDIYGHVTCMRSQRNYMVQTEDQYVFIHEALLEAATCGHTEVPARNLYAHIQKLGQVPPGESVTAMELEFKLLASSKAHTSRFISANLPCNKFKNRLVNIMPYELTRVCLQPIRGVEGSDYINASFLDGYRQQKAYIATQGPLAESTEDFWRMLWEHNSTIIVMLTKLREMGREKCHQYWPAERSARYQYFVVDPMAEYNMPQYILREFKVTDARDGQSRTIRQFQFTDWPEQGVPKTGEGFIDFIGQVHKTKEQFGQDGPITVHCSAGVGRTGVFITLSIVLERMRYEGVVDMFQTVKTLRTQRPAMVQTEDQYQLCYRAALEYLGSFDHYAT

On to `CCCCCNC(=O)C(Cc1ccc(OC(C(=O)O)C(=O)O)cc1)NC(=O)[C@H](Cc1ccc(OCc2ccccc2)cc1)NC(=O)CCC(=O)O` (some centres undefined), for which the figures for the inhibition in experiment [1], in experiment [2] and in experiment [3] were 98%, 28% and 33%, respectively.

With `CCCCCNC(=O)C(Cc1ccc(OC(C(=O)O)C(=O)O)cc1)NC(=O)[C@H]1C[C@@H]1C(=O)O` (some centres undefined), the inhibition (usually how much of the control response was suppressed) came to 57% in experiment [1], 6% in experiment [2] and 10% in experiment [3].

Turning to `CCCCCNC(=O)C(Cc1ccc(O)c(C(=O)O)c1)NC(=O)CCC(=O)O` (centres undefined), the results for the inhibition in experiment [1], in experiment [2] and in experiment [3] were 0%, 0% and 3%, respectively.

As for `CCOC(CNC(=O)C(Cc1ccc(OC(C(=O)O)C(=O)O)cc1)NC(=O)CCC(=O)O)OCC` (centres undefined), the inhibition in experiment [1] turned out to be 46%; in experiment [2], 3%; in experiment [3], 11%.

With `CCCCCNC(=O)C(Cc1ccc(OC(C(=O)O)C(=O)O)cc1)NC(=O)[C@H](COc1ccc(Cc2cc(Cl)ccc2Cl)cc1)NC(=O)CCC(=O)O` (some centres undefined), the results for the inhibition in experiment [1], in experiment [2] and in experiment [3] were 98%, 33% and 28%, respectively.

On to `CCCCCNC(=O)C(Cc1ccc(OC(C(=O)O)C(=O)O)cc1)NC(=O)c1ccccc1C(=O)O` (centres undefined), for which the inhibition stood at 63% in experiment [1], 10% in experiment [2] and 19% in experiment [3].

Turning to `CCCCCNC(=O)C(Cc1ccc(OC(C(=O)O)C(=O)O)cc1)NC(=O)[C@H](CCC(=O)O)NC(=O)OC(C)(C)C` (some centres undefined), the inhibition came out at 83% in experiment [1], 11% in experiment [2] and 14% in experiment [3].

Take `O=C(O)CCC(=O)NC(Cc1ccc(OC(C(=O)O)C(=O)O)cc1)C(=O)NCCCn1ccnc1` (centres undefined): the inhibition in experiment [1] is 26%; in experiment [2], 3%; in experiment [3], 1%.

For `CCCCCNC(=O)C(Cc1ccc(OCC(=O)O)c(C(N)=O)c1)NC(=O)CCC(=O)O` (centres undefined), the inhibition amounted to 11% in experiment [1], 0% in experiment [2] and 1% in experiment [3].

Consider `CCCCCNC(=O)C(Cc1ccc(OC(C(=O)O)C(=O)O)cc1)NC(=O)CCCC(=O)O` (centres undefined), for which the inhibition in experiment [1] was 67%; in experiment [2], 7%; in experiment [3] it was 10%.

Take `O=C(O)CCC(=O)NC(Cc1ccc(OC(C(=O)O)C(=O)O)cc1)C(=O)NCc1ccc(C(F)(F)F)cc1` (centres undefined): the results for the inhibition in experiment [1], in experiment [2] and in experiment [3] were 66%, 4% and 15%, respectively.

As for `O=C(O)CCC(=O)NC(Cc1ccc(OC(C(=O)O)C(=O)O)cc1)C(=O)NCCCc1ccccc1` (centres undefined), the inhibition in experiment [1] was 72%; in experiment [2], 6%; in experiment [3], 12%.

In the case of `CCCCCCNC(=O)C(Cc1ccc(OC(C(=O)O)C(=O)O)cc1)NC(=O)CCC(=O)O` (centres undefined), the inhibition came to 74% in experiment [1], 5% in experiment [2] and 8% in experiment [3].

With `CCCCC(N)C(=O)NC(=O)C(Cc1ccc(OC(C(=O)O)C(=O)O)cc1)NC(=O)CCC(=O)O` (centres undefined), the inhibition amounted to 93% in experiment [1], 4% in experiment [2] and 48% in experiment [3].

Regarding `CCCCCNC(=O)C(Cc1ccc(OC(C(=O)O)C(=O)O)c(F)c1)NC(=O)CCC(=O)O` (centres undefined), the inhibition was 78% in experiment [1], 4% in experiment [2] and 9% in experiment [3].

With `CC(C)CC(CO)NC(=O)C(Cc1ccc(OC(C(=O)O)C(=O)O)cc1)NC(=O)CCC(=O)O` (centres undefined), the inhibition was determined as 57% in experiment [1], 0% in experiment [2] and 10% in experiment [3].

In the case of `CCCCCNC(=O)C(Cc1ccc(OC(C(=O)O)C(=O)O)c(F)c1F)NC(=O)CCC(=O)O` (centres undefined), the inhibition came to 85% in experiment [1], 12% in experiment [2] and 23% in experiment [3].

Turning to `O=C(O)CCC(=O)NC(Cc1ccc(OC(C(=O)O)C(=O)O)cc1)C(=O)NCC1CCCCC1` (centres undefined), the figures for the inhibition in experiment [1], in experiment [2] and in experiment [3] were 73%, 5% and 12%, respectively.
